Consider 18 molecules from PubChem BioAssay (NCI).

“And” between values parts separate entries of the source, which are not always exact repeats. Equal values may be shown once.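 In this assay, cells in 96-well plates receive the compound at five concentrations for 48 hours. Endpoints are linearly interpolated between the surrounding concentrations. Abbreviation: GI50, concentration required for 50% inhibition of growth. TGI denotes the concentration required for complete inhibition of growth.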 Bounds are passed on as bounds.

The first experiment concerns NCI/ADR-RES ovarian. The experiment can be described thus: NCI anticancer screen, dose series, 48 h.
`COC1(OC)CCc2c(sc3ncnc(Nc4cccc(Br)c4)c23)C1` gave a TGI of 76.3 µM.
In turn, `CCOC(=O)c1cn(CC)c(=O)n2c1nc1ccccc12` registered a TGI of more than 100 µM.
`O=[N+]([O-])c1ccc(/C=N/Nc2nc3ccccc3[nH]2)o1` had a TGI of more than 100 µM.
Still for that read-out and setting: under `COc1ccc(-c2oc3cc(-c4cc5oc(-c6ccc(OC)cc6)c(-c6ccc(OC)cc6)c5cc4OC)c(OC)cc3c2-c2ccc(OC)cc2)cc1` stands more than 100 µM; under `C[C@H]1CC[C@@]2(OC1)O[C@H]1C[C@H]3[C@@H]4CC[C@@H]5C[C@@H](OC6OC(CO)C(O)C(O)C6OC6OC(CO)C(O)C(O)C6O)CC[C@]5(C)[C@H]4CC[C@]3(C)[C@H]1[C@@H]2C` (stereo partly drawn), 5.03 µM; under `O=C(NCCC1CNc2ccccc21)OCc1ccccc1` (stereo not drawn), more than 100 µM.
Same read-out and setting: under `CCN1/C(=C/C#C/C(C)=C\c2sc3ccc(Cl)cc3[n+]2CC)Sc2ccc(Cl)cc21` stands 80.4 µM; under `CSC(=O)/C=C1\SS/C(=C\C(=O)SC)S1`, 8.71 µM; under `CC(N)(CC(O)(C(F)(F)Cl)C(F)(F)Cl)C(=O)O` (stereo not drawn), more than 10 µM.
The same measure, in the same setting: as for `COc1ccc(CCCCNCc2cccc(CNCCCCc3ccc(OC)cc3)c2)cc1`, the figure is 3.19 µM; as for `CC(SC(=S)N1CCOCC1)C(=O)Nc1nnc(-c2ccc(Cl)cc2)o1` (stereo not drawn), more than 100 µM.
In turn, `O=C(CCc1cc(O)cc(O)c1)NCCc1cc(O)cc(OCc2ccccc2)c1` gave a TGI of more than 100 µM.
On to `COc1cc2nc(Cl)nc(NS(=O)(=O)c3cc4ccccc4s3)c2cc1OC`, for which the TGI is more than 100 µM.
The same measure, in the same setting: as for `O=c1c(-c2ccccc2)nnc2n(Cc3ccccc3)c3ccccc3n12`, the figure is more than 100 µM.
For `COc1cc([C@@H]2c3cc4c(cc3[C@@H](Nc3ccc(NC(=O)c5cc([N+](=O)[O-])cn5C)cc3)[C@H]3COC(=O)[C@H]23)OCO4)cc(OC)c1O`, the GI50 was 2.17 µM and the TGI is more than 31.6 µM.
The molecule `COc1ccc(/C(Nc2ccccc2)=C(\CCl)c2ccccc2)cc1OC` yielded a TGI of more than 100 µM.

Another experiment has as its system PC-3 prostate. Description: NCI anticancer screen, dose series, 48 h.
Molecule `COC1(OC)CCc2c(sc3ncnc(Nc4cccc(Br)c4)c23)C1` came in with a TGI of more than 100 µM.
`CCOC(=O)c1cn(CC)c(=O)n2c1nc1ccccc12` came in with a TGI of more than 100 µM.
As for `O=[N+]([O-])c1ccc(/C=N/Nc2nc3ccccc3[nH]2)o1`, the TGI came to 49.2 µM.
Same read-out and setting: under `COc1ccc(-c2oc3cc(-c4cc5oc(-c6ccc(OC)cc6)c(-c6ccc(OC)cc6)c5cc4OC)c(OC)cc3c2-c2ccc(OC)cc2)cc1` stands more than 100 µM; under `C[C@H]1CC[C@@]2(OC1)O[C@H]1C[C@H]3[C@@H]4CC[C@@H]5C[C@@H](OC6OC(CO)C(O)C(O)C6OC6OC(CO)C(O)C(O)C6O)CC[C@]5(C)[C@H]4CC[C@]3(C)[C@H]1[C@@H]2C` (stereo partly drawn), 3.84 µM.
Still for that read-out and setting: as for `O=C(NCCC1CNc2ccccc21)OCc1ccccc1` (stereo not drawn), the figure is more than 100 µM; as for `CCN1/C(=C/C#C/C(C)=C\c2sc3ccc(Cl)cc3[n+]2CC)Sc2ccc(Cl)cc21`, 9.11 µM; as for `CSC(=O)/C=C1\SS/C(=C\C(=O)SC)S1`, 9.32 µM.
On the same count and under the same terms, under `CC(N)(CC(O)(C(F)(F)Cl)C(F)(F)Cl)C(=O)O` (stereo not drawn) stands more than 10 µM; under `COc1ccc(CCCCNCc2cccc(CNCCCCc3ccc(OC)cc3)c2)cc1`, 3.55 µM; under `CC(SC(=S)N1CCOCC1)C(=O)Nc1nnc(-c2ccc(Cl)cc2)o1` (stereo not drawn), more than 100 µM.
`O=C(CCc1cc(O)cc(O)c1)NCCc1cc(O)cc(OCc2ccccc2)c1`: the TGI was more than 100 µM.
The same measure, in the same setting: as for `COC(=O)/C=C/c1ccc(OP(=O)(O)O)c(OC)c1`, the figure is more than 100 µM; as for `COc1cc2nc(Cl)nc(NS(=O)(=O)c3cc4ccccc4s3)c2cc1OC`, 75.6 µM; as for `COC(=O)c1c(C)cccc1/C=C1\Cc2ccc(C)c(C)c2C1=O`, more than 100 µM.
For `COc1cc([C@@H]2c3cc4c(cc3[C@@H](Nc3ccc(NC(=O)c5cc([N+](=O)[O-])cn5C)cc3)[C@H]3COC(=O)[C@H]23)OCO4)cc(OC)c1O`, the TGI was > 100 µM and 12.5 µM.
Same read-out and setting: under `COc1ccc(/C(Nc2ccccc2)=C(\CCl)c2ccccc2)cc1OC` stands more than 100 µM.

The next experiment relates to COLO 205 colon. Description: NCI anticancer screen, dose series, 48 h.
Regarding `COC1(OC)CCc2c(sc3ncnc(Nc4cccc(Br)c4)c23)C1`, the TGI is more than 100 µM.
Same read-out and setting: under `CCOC(=O)c1cn(CC)c(=O)n2c1nc1ccccc12` stands more than 100 µM; under `O=[N+]([O-])c1ccc(/C=N/Nc2nc3ccccc3[nH]2)o1`, 23 µM; under `COc1ccc(-c2oc3cc(-c4cc5oc(-c6ccc(OC)cc6)c(-c6ccc(OC)cc6)c5cc4OC)c(OC)cc3c2-c2ccc(OC)cc2)cc1`, more than 100 µM.
On the same count and under the same terms, under `C[C@H]1CC[C@@]2(OC1)O[C@H]1C[C@H]3[C@@H]4CC[C@@H]5C[C@@H](OC6OC(CO)C(O)C(O)C6OC6OC(CO)C(O)C(O)C6O)CC[C@]5(C)[C@H]4CC[C@]3(C)[C@H]1[C@@H]2C` (stereo partly drawn) stands 3.55 µM.
On the same count and under the same terms, as for `O=C(NCCC1CNc2ccccc21)OCc1ccccc1` (stereo not drawn), the figure is more than 100 µM.
`CCN1/C(=C/C#C/C(C)=C\c2sc3ccc(Cl)cc3[n+]2CC)Sc2ccc(Cl)cc21` had a TGI of 3.21 µM.
Same read-out and setting: as for `CSC(=O)/C=C1\SS/C(=C\C(=O)SC)S1`, the figure is 30.6 µM; as for `CC(N)(CC(O)(C(F)(F)Cl)C(F)(F)Cl)C(=O)O` (stereo not drawn), more than 10 µM.
On the same count and under the same terms, as for `COc1ccc(CCCCNCc2cccc(CNCCCCc3ccc(OC)cc3)c2)cc1`, the figure is 5.22 µM.
In turn, `CC(SC(=S)N1CCOCC1)C(=O)Nc1nnc(-c2ccc(Cl)cc2)o1` (stereo not drawn) displayed a TGI of more than 100 µM.
Same read-out and setting: as for `O=C(CCc1cc(O)cc(O)c1)NCCc1cc(O)cc(OCc2ccccc2)c1`, the figure is more than 100 µM; as for `COC(=O)/C=C/c1ccc(OP(=O)(O)O)c(OC)c1`, more than 100 µM.
On the same count and under the same terms, under `COc1cc2nc(Cl)nc(NS(=O)(=O)c3cc4ccccc4s3)c2cc1OC` stands more than 100 µM.
